Converted amounts (≈) assume the structure as drawn.
Columns and labels:
E. coli ATCC 25922 = assay: Animal efficacy, rat lung infection, aerosol administration; format: in vivo; settings: aerosol administration of a 40 mg/mL solution of tobramycin alone (FIG. 18)
Method: The in vivo efficacy of aerosolized fosfomycin alone, tobramycin alone and combinations of fosfomycin plus tobramycin were evaluated against E. coli ATCC 25922 and P. aeruginosa ATCC 27853 in rat lungs. The bacterial inoculum used to establish the rat lung infections consisted of a mixture of bacteria and agarose beads. E. coli ATCC 25922 or P. aeruginosa ATCC 27853 was streaked onto blood agar plates and incubated for 18-24 hours at 35° C. Two to three colonies were inoculated into 10 mL Tryptic Soy Broth (hereafter referred to as TSB) and incubated statically at 35° C. for 1.5 to 2 hours. The culture was adjusted to an optical density of 0.1 (625 nm) in fresh TSB and then diluted 1:5 in TSB. One milliliter of bacterial suspension (approximately 10^7 CFU/mL) was added to 10 mL of a 2% noble agar solution and briefly mixed by inversion. The mixture was added to 150 mL of heavy white mineral oil equilibrated to 55° C. and stirred on ice for 5 minutes. The cooled suspension was poured into a 250 mL centrifuge tube and centrifuged at 3,000 rpm, 4° C., for 10 minutes. The supernatant was decanted off, the pellet resuspended in 25 mL of normal sterile saline, and transferred to a 50 mL conical centrifuge tube. […]
Bacterial killing was evaluated 18 hours after the last exposure. […] The lungs were removed aseptically, excess tissue removed and the lung weight determined. […]

[1] = in vivo; cited from earlier work
[2] = cited from earlier work
[3] = test system: susceptible P. aeruginosa; settings: typical values, literature; cited from earlier work
[4] = in vivo; cited from earlier work; remark: listed apart in the source
[5] = test system: E. coli, Proteus spp., Salmonella spp., Shigella spp., and S. marcescens; settings: Forsgren and Walder, 1983; cited from earlier work
P. aeruginosa ATCC 27853 = assay: MIC for P. aeruginosa ATCC 27853; format: cell-based; settings: Pseudomonas aeruginosa, ATCC27853
Method: E. coli ATCC 25922 and S. aureus ATCC 29213 were used as quality control stains. Bacterial strains were streaked onto blood agar plates, and incubated at 35° C. for 18 hours. Two to three bacterial colonies from the overnight cultures were inoculated into 3 mL of sterile normal saline, vortexed briefly, and adjusted to a 0.5 McFarland standard (NCCLS, 2003). The bacterial suspension was diluted 1:100 in cation-adjusted Mueller-Hinton broth (hereafter referred to as CAMHB). […] The MIC was defined as the lowest concentration of antibiotic (s) that prevented visible growth after incubation at 35° C. for 18-24 hours. […] Two to three bacterial colonies were inoculated into 10 mL CAMHB and incubated at 35° C. in a shaking water bath (250 rpm) for 18-24 hours. […] The resulting culture was adjusted to a 0.5 McFarland standard (NCCLS, 2003). […] Ten milliliter aliquots were then pipeted into 50 mL conical tubes. […] The killing activity of fosfomycin plus amikacin, arbekacin, dibikacin, gentamicin, kanamycin, […], neomycin, streptomycin, or tobramycin were also compared to the killing activity of their individual components alone. […] A no drug control was run in each experiment. Cultures were incubated with antibiotic at 35° C. in a shaking (250 rpm) water bath for 24 hours. […] Culture plates were incubated at 35° C. for 18-24 hours and the number of colonies enumerated manually. […]

Compound | killing of E. coli in the rat lung (E. coli ATCC 25922) [log 10] | prevalence of nephrotoxicity [1] | sputum levels ([2]; aerosol administration) [µg/mL] | oral absorption ([2]; in vivo, po) | plasma half-life ([2]; parenteral administration) [h] | MICs of susceptible P. aeruginosa [3] | concentrations in normal lung [4] [ng/mL] | peak serum concentrations [4] [µg/mL] | time of peak serum concentrations [4] [h] | fosfomycin concentrations at which the species are generally inhibited [5] [µg/mL] | MIC (P. aeruginosa ATCC 27853) [µg/mL]
NC[C@H]1O[C@H](O[C@H]2[C@H](O)[C@@H](O[C@H]3O[C@H](CO)[C@@H](O)[C@H](N)[C@H]3O)[C@H](N)C[C@@H]2N)[C@H](N)C[C@@H]1O [Tobramycin] | 2 | 31-42% | ≥ 1000 | poorly absorbed orally | 1 to 2 | less than 2 μg/mL | – | – | – | – | –
C[C@@H]1O[C@@H]1P(=O)(O)O [Fosfomycin] | – | – | – | – | – | – | 1000 to 13000 | 25 to 95 | 1 to 2 | ≤ 64 | 4 (≈ 29 µM)
